Target: T1, CBL-B (Homo sapiens, UniProt Q13191)
T1 construct: GST
Experiment: CBL-B TR-FRET IC50 screening (E1/E2 ubiquitination, Biotin-Ubiquitin, Anti GST-Tb donor / Streptavidin-d2 acceptor)
Type: biochemical
Conditions: CBL-B 10 nM final; 11-point titration from 100 uM; binned A-F; read-out: CBL-B TR-FRET activity IC50

T1 sequence (Q13191 whole entry): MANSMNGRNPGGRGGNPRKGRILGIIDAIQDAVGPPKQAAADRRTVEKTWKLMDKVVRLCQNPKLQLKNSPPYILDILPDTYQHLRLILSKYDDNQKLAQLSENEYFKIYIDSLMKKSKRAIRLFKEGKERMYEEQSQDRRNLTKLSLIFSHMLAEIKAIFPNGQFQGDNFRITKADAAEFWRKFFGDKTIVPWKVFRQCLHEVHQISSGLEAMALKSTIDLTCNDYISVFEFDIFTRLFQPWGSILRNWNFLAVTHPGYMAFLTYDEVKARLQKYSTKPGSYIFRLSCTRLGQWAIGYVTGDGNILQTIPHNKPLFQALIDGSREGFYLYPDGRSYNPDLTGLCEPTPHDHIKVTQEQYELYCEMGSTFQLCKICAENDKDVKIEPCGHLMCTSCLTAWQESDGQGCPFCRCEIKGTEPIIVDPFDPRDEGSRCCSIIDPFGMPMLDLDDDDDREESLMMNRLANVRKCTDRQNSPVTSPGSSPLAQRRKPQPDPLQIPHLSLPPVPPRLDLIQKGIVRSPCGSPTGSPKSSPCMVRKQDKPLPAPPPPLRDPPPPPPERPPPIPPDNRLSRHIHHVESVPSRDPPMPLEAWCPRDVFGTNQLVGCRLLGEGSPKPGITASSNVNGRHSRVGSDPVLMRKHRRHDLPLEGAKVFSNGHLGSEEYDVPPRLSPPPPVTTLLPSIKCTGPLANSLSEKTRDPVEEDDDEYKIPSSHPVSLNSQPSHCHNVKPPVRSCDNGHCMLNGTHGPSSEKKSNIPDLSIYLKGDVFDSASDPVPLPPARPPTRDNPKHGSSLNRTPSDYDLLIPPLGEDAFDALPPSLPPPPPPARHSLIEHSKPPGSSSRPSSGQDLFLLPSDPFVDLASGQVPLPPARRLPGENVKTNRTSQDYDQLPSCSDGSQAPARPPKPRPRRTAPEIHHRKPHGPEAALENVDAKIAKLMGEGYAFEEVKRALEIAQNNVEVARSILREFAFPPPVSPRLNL

IC50	SMILES
< 100 nM	Cn1cnnc1C1(c2cccc(-n3cc4c(C(F)(F)F)cc(CN5CCC6(CC6)C5)cn4c3=O)c2)CC2(CC2)C1 [Compound 115]
> 10000 nM	Cn1cnnc1CC1(n2cc(-n3cc4c(C(F)(F)F)cccn4c3=O)cn2)COC1 [Compound 146]
> 10000 nM	C[C@H]1CCCN(Cc2cc(C(F)(F)F)c3cn(-c4cccc([C@@H](c5nncn5C)C5CCOCC5)c4)c(=O)n3c2)C1 (single isomer, unassigned) [Compound 359]
< 100 nM	C[C@@H]1CN(Cc2cc(C(F)(F)F)c3cn(-c4cccc(C5(Cc6nncn6C)COC5)c4)c(=O)n3c2)CCO1 [Compound 12]
< 100 nM	[2H]C([2H])([2H])n1cnnc1CC1(c2cccc(-n3cc4c(C(F)(F)F)cc([C@@H](C)N5CCO[C@H](C)C5)cn4c3=O)c2)COC1 [Compound 287_P2]
< 100 nM	CO[C@@H]1CCCN(Cc2cc(C(F)(F)F)c3cn(-c4cccc([C@H](c5nncn5C)C5CCC5)c4)c(=O)n3c2)CC1 (single isomer, unassigned) [Compound 264]
3000 to 10000 nM	CC(Cc1nncn1C)c1ccc(F)c(-n2cc3c(C(F)(F)F)cccn3c2=O)c1 (centres unmarked) [Compound 52]
301 to 1000 nM	C[C@H]1CCCN(Cc2cc(C(F)(F)F)c3cn(-c4cccc([C@@H](c5nncn5C)C5CCC5)c4)c(=O)n3c2)C1 [Compound 86]
> 10000 nM	C[C@H]1CCCN([C@H](c2cc(C(F)(F)F)c3cn(-c4cccc([C@@H](c5nncn5C)C5CCC5)c4)c(=O)n3c2)C(F)(F)F)C1 (single isomer, unassigned) [Compound 257]
1000 to 3000 nM	CC(=O)N1CCN(Cc2cc(C(F)(F)F)c3cn(-c4cccc([C@H](c5nncn5C)C5CCC5)c4)c(=O)n3c2)CC1 [Compound 339_P2]
> 10000 nM	C[C@H]1CCCN([C@@H](c2cc(C(F)(F)F)c3cn(-c4cccc([C@@H](c5nncn5C)C5CCC5)c4)c(=O)n3c2)C(F)(F)F)C1 (single isomer, unassigned) [Compound 256]
3000 to 10000 nM	CC1CN(Cc2cc(C(F)(F)F)c3cn(-c4cccc([C@@H](c5nncn5C)C5CCC5)c4)c(=O)n3c2)CCC1(F)F (single isomer, unassigned) [Compound 169]
1000 to 3000 nM	Cn1cnnc1N(c1cccc(-n2cc3c(C(F)(F)F)cccn3c2=O)c1)C1COC1 [Compound 211]
301 to 1000 nM	Cc1conc1[C@H](c1cccc(-n2cc3c(C(F)(F)F)cc(CN4CCC[C@H](C)C4)cn3c2=O)c1)C1CCC1 (single isomer, unassigned) [Compound 302]
< 100 nM	Cc1[nH]nnc1[C@H](c1cccc(-n2cc3c(C(F)(F)F)cc(CN4CCC[C@H](C)C4)cn3c2=O)c1)C1CCC1 [Compound 326]
< 100 nM	C[C@H]1CCCN(Cc2cc(C(F)(F)F)c3cn(-c4cccc(N(c5nncn5C)C5COC5)c4)c(=O)n3c2)C1 [Compound 334]

IC50	SMILES
100 to 300 nM	Cn1cnnc1CC1(c2cccc(-n3cc4c(C(F)(F)F)cccn4c3=O)c2)COC1 [Compound 9]
> 10000 nM	Cn1cnnc1CC1CCc2c1cccc2-n1cc2c(C(F)(F)F)cccn2c1=O (centres unmarked) [Compound 4]
301 to 1000 nM	C[C@H]1CCCN(C(c2cc(C(F)(F)F)c3cn(-c4cccc(C5(Cc6nncn6C)COC5)c4)c(=O)n3c2)C(F)(F)F)C1 (single isomer, unassigned) [Compound 196]
< 100 nM	Cn1cnnc1[C@@H](c1cccc(-n2cc3c(C(F)(F)F)cc(CN4CC(C)(F)C4)cn3c2=O)c1)C1CCC1 [Compound 298]
< 100 nM	COc1cc(-n2cc3c(C(F)(F)F)cc(CN4CCC5(CC5)C4)cn3c2=O)cc(C2(Cc3nncn3C)COC2)c1 [Compound 108]
< 100 nM	CO[C@H]1CCCN(Cc2cc(C(F)(F)F)c3cn(-c4cccc([C@H](c5nncn5C)C5CCC5)c4)c(=O)n3c2)C1 [Compound 250]
> 10000 nM	C[C@H]1CCCN(Cc2cc(C(F)(F)F)c3cn(-c4cccc([C@H](c5nccs5)C5CCC5)c4)c(=O)n3c2)C1 (single isomer, unassigned) [Compound 306]
> 10000 nM	Cn1cnnc1CC1(c2cccc(-n3cc4c(C(F)(F)F)cccn4c3=O)c2)CNC1 [Compound 144]
1000 to 3000 nM	C[C@@H]1CCCN1Cc1cc(C(F)(F)F)c2cn(-c3cccc([C@@H](c4nncn4C)C4CCC4)c3)c(=O)n2c1 [Compound 381_P1]
100 to 300 nM	Cn1cnnc1CC1(c2cccc(-n3cc4c(C(F)(F)F)cc(CN5CCNC(=O)C5)cn4c3=O)c2)COC1 [Compound 106]
< 100 nM	Cn1cnnc1[C@@H](c1cccc(-n2cc3c(C(F)(F)F)cc(CN4CCn5cnnc5C4)cn3c2=O)c1)C1CCC1 [Compound 316]
301 to 1000 nM	C[C@@H]1CN(Cc2cc(C(F)(F)F)c3cn(-c4cccc(C5(c6nncn6C)CC(F)(F)C5)c4)c(=O)n3c2)CCO1 [Compound 279]
3000 to 10000 nM	C[C@@H]1CN([C@H](C)c2cc(C(F)(F)F)c3cn(-c4cccc([C@@H](c5nncn5C)C5CCC5)c4)c(=O)n3c2)CCO1 (single isomer, unassigned) [Compound 231]
> 10000 nM	Cc1c[nH]nc1[C@H](c1cccc(-n2cc3c(C(F)(F)F)cc(CN4CCC[C@H](C)C4)cn3c2=O)c1)C1COC1 [Compound 280]
< 100 nM	COc1cc(-n2cc3c(C(F)(F)F)cc(CN4CCC[C@H](C)C4)cn3c2=O)cc(C2(Cc3nncn3C)COC2)c1 [Compound 107]

Same assay, conditions: second part of Table 2 (head 'Patent Cmpd No / Updated Activity'); same CBL-B TR-FRET IC50 bins A-F; read-out: Updated Activity

IC50	SMILES
< 100 nM	Cn1cnnc1[C@H](c1cccc(-n2cc3c(C(F)(F)F)cccn3c2=O)c1)C1CCC1 [Compound 401_P1]
< 100 nM	[2H]C([2H])(c1cc(C(F)(F)F)c2cn(-c3cccc([C@H](c4nncn4C)C4CCC4)c3)c(=O)n2c1)N1CCO[C@H](C)C1 [Compound 527]
> 10000 nM	CNC(=O)CCc1cc([C@@H](c2nncn2C)C2CCC2)cc(-n2cc3c(C(F)(F)F)cccn3c2=O)c1 (single isomer, unassigned) [Compound 558]
3000 to 10000 nM	C[C@H]1CCCN(Cc2cc(C(F)(F)F)c3cn(-c4cncc([C@H](c5nncn5C)C5CCC5)c4)c(=O)n3c2)C1 [Compound 628_P2]
> 10000 nM	Cn1cnnc1[C@@H](c1cc(-c2cnsc2)cc(-n2cc3c(C(F)(F)F)cccn3c2=O)c1)C1CCC1 (single isomer, unassigned) [Compound 457]
> 10000 nM	CO[C@]1(C)C[C@@](c2cccc(-n3cc4c(C(F)(F)F)cc(CN5CCC[C@H](C)C5)cn4c3=O)c2)(c2nncn2C)C1 (single isomer, unassigned) [Compound 440]
> 10000 nM	CCn1cnnc1[C@H](c1cccc(-n2cc3c(C(F)(F)F)cc(CN4CCC[C@H](C)C4)cn3c2=O)c1)C1CCC1 (single isomer, unassigned) [Compound 426]
> 10000 nM	Cn1cnnc1[C@@H](c1cc(-c2ccncc2)cc(-n2cc3c(C(F)(F)F)cccn3c2=O)c1)C1CCC1 (single isomer, unassigned) [Compound 446]
> 10000 nM	C[C@@H]1CN(Cc2cc(C(F)(F)F)c3cn(-c4cc(F)cc([C@H](c5nncn5C)C5CCC5)c4)c(=O)n3c2)CCO1 (single isomer, unassigned) [Compound 511]
< 100 nM	C[C@H]1CCCN(Cc2cc(C(F)(F)F)c3cn(-c4cccc([C@H](c5n[nH]cc5C#N)C5CCC5)c4)c(=O)n3c2)C1 [Compound 567]
> 10000 nM	Cc1cn(CC#N)nc1[C@H](c1cccc(-n2cc3c(C(F)(F)F)cc(CN4CCC[C@H](C)C4)cn3c2=O)c1)C1CCC1 (single isomer, unassigned) [Compound 420]
< 100 nM	C[C@H]1CCCN(Cc2cc(C(F)(F)F)c3cn(-c4cccc([C@]5(c6nncn6C)C[C@@](C)(O)C5)c4)c(=O)n3c2)C1 (single isomer, unassigned) [Compound 417]
< 100 nM	CO[C@H]1C[C@](c2cccc(-n3cc4c(C(F)(F)F)cc([C@H](C)N5CCC[C@H](C)C5)cn4c3=O)c2)(c2nncn2C)C1 (single isomer, unassigned) [Compound 605]
301 to 1000 nM	Cn1cnnc1[C@H](c1cc(-n2cc3c(C(F)(F)F)cccn3c2=O)cs1)C1CCC1 [Compound 403_P2]
< 100 nM	C[C@@H]1CN(Cc2cc(C(F)(F)F)c3cn(-c4cccc([C@H](c5nncn5C)C5CC5)c4)c(=O)n3c2)CCO1 [Compound 612_P2]
100 to 300 nM	COC(=O)N1CCC[C@@H](c2cc(C(F)(F)F)c3cn(-c4cccc([C@H](c5nncn5C)C5CCC5)c4)c(=O)n3c2)C1 (single isomer, unassigned) [Compound 394]
< 100 nM	Cn1cnnc1[C@H](c1cc(C#N)cc(-n2cc3c(C(F)(F)F)cc(CN4CCC5(CC5)C4)cn3c2=O)c1)C1CCC1 (single isomer, unassigned) [Compound 497]
< 100 nM	COCC[C@H](c1cccc(-n2cc3c(C(F)(F)F)cc(CN4CCC[C@H](C)C4)cn3c2=O)c1)c1nncn1C (single isomer, unassigned) [Compound 399]
< 100 nM	COC[C@@H]1CCN1Cc1cc(C(F)(F)F)c2cn(-c3cccc([C@H](c4nncn4C)C4CCC4)c3)c(=O)n2c1 [Compound 507]
> 10000 nM	COC1CN([C@@H](c2cccc(-n3cc4c(C(F)(F)F)cc(CN5CCC[C@H](C)C5)cn4c3=O)c2)c2nncn2C)C1 (single isomer, unassigned) [Compound 388]
> 10000 nM	Cn1cnnc1[C@@H](c1cc(-c2ccsn2)cc(-n2cc3c(C(F)(F)F)cccn3c2=O)c1)C1CCC1 (single isomer, unassigned) [Compound 461]
> 10000 nM	COC1CN([C@H](c2cccc(-n3cc4c(C(F)(F)F)cc(CN5CCC[C@H](C)C5)cn4c3=O)c2)c2nncn2C)C1 (single isomer, unassigned) [Compound 387]
> 10000 nM	Cn1cnnc1[C@@H](c1cc(-c2ccncn2)cc(-n2cc3c(C(F)(F)F)cccn3c2=O)c1)C1CCC1 (single isomer, unassigned) [Compound 442]
> 10000 nM	Cn1cnnc1[C@H](c1cc(C#N)cc(-n2cc3c(C(F)(F)F)cccn3c2=O)c1)C1CCC1 (single isomer, unassigned) [Compound 452]
< 100 nM	Cn1cnnc1C1(c2cccc(-n3cc4c(C(F)(F)F)cc(CN5CCc6ncsc6C5)cn4c3=O)c2)CCC1 [Compound 473]
